Measured values taken from patent publication US12048686B2, “Compositions and methods for activating NRF2-dependent gene expression” (The University of Chicago, priority 2018, dated 2024).

How the values were obtained:
IMR32 cells = assay: Quantitative metabolomic profiling of IMR32 cells; format: cell-based
Experimental: Quantitative Metabolomic Profiling. For polar metabolite profiling experiments, cells were grown in 15 cm plates and cultured in RPMI supplemented with 10% FBS, 2 mM L-glutamine and 1% P/S prior to media replacement containing either vehicle (DMSO) or the indicated dose of CBR-470-1. Following incubation for the appropriate time, cells were scraped into ice-cold PBS and isolated by centrifugation at 1,400 g at 4° C. Cell pellets were resuspended in 300 μl of an 80:20 mixture of cold MeOH/H2O, an internal standard was added (10 nmol d3-serine; Sigma Aldrich), and the suspension was sonicated (Fisher Scientific FB-505) for 5 seconds followed by a 10 minute centrifugation at 16,000 g. […] Metabolite peak transitions and retention times are listed in Table 2 and were confirmed by running standards for measured glycolytic, PPP, CAC and co-factor metabolites. 2-phosphoglycerate and 3-phosphoglycerate isomers were quantified in aggregate (2PG/3PG). Relative metabolite abundance was quantified by integrated peak area for the given MRM-transition, and all metabolite levels were normalized to internal standard extracted ion intensity values for d3-serine. These parameters were used to quantify all metabolites, with the exception of 1,3-BPG and MGx, which required chemical derivitization to stable intermediates prior to LC-MS/MS quantification, as previously reported^20, 33. […]

PGK1 = biological target: T1, PGK1 (Homo sapiens, UniProt P00558); assay: Recombinant PGK1 assay (GAPDH/PGK1 coupled assay, NADH absorbance); format: biochemical; settings: absorbance 340 nm
T1 sequence (P00558 1-417): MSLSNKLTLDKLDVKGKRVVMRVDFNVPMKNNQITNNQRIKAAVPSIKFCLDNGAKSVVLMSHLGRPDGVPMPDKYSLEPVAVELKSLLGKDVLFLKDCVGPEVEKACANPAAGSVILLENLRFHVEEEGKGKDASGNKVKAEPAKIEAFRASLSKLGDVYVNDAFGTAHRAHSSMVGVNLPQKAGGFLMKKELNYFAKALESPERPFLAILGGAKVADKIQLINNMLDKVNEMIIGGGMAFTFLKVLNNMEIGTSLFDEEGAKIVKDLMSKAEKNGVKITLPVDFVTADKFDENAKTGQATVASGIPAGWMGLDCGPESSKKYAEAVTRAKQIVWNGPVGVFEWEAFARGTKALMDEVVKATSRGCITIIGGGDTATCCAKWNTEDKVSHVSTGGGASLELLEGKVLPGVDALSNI
Excerpt: FIG. 6A-D. CBR-470-1 inhibits PGK1 in vitro and in situ. (a) Schematic of the GAPDH/PGK1 coupled assay. Pre-equilibration of the GAPDH reaction (top left) results in an NAD^+/NADH equilibrium, which upon addition of PGK1 and ADP pulls the reaction to the right producing more NADH. Monitoring NADH absorbance after addition of PGK1 (bottom right) can be used to monitor PGK1 activity in the forward direction (right). […] (c, d) Relative level of central metabolites in IMR32 cells treated with viral knockdown of PGK1 for 72 hours (c) (n=4) and with CBR-470-1 relative DMSO alone for the indicative times (d) (n=3). Each metabolite is normalized to the control condition at each time point. Data shown represent mean±SEM of biologically independent samples.
Recombinant PGK1 assay. PGK1 enzymatic activity in the forward direction was measured with a coupled enzymatic assay^34. Three PGK1 conditions were prepared by dissolving recombinant PGK1 in potassium phosphate buffer (10 mM KH2PO4, 10 mM MgSO4, pH 7.0), and transferring the aliquots of PGK1 solution to the microtubes being treated with same amount of DMSO and indicated concentrations of CBR-470-1. Final concentration of PGK1 is 20 ng/mL and DMSO is 1% for each sample. […] The change in absorbance at 340 nm at room temperature was measured every 20 seconds for 45 minutes, by Tecan Infinite M200 plate reader. […]

CC(C)CN[C@H]1CS(=O)(=O)C[C@@H]1S(=O)(=O)c1ccc(Cl)cc1 [CBR-470-1]
downstream metabolites (3PG, lactate) (IMR32 cells): depletion of downstream metabolites | metabolite levels upstream of PGK1 (BPG, GAP) (IMR32 cells): rapid increase in metabolite levels upstream of PGK1 | PGK1-dependent activity and accumulation of NADH (PGK1): significantly inhibits PGK1-dependent activity and accumulation of NADH
